From ChEMBL document CHEMBL1136560, “1,4-Diazepane-2-ones as novel inhibitors of LFA-1” (Bioorg Med Chem Lett, 2003)
pIC50: −log10 of the molar value.

Target: Intercellular adhesion molecule (ICAM-1), Integrin alpha-L/beta-2 (Homo sapiens, UniProt P05107+P20701)
Assay: Inhibition of LFA-1/ICAM-1 interaction in ELISA
Format: protein-complex assay

Intercellular adhesion molecule (ICAM-1), Integrin alpha-L/beta-2, sequence (P20701 whole entry): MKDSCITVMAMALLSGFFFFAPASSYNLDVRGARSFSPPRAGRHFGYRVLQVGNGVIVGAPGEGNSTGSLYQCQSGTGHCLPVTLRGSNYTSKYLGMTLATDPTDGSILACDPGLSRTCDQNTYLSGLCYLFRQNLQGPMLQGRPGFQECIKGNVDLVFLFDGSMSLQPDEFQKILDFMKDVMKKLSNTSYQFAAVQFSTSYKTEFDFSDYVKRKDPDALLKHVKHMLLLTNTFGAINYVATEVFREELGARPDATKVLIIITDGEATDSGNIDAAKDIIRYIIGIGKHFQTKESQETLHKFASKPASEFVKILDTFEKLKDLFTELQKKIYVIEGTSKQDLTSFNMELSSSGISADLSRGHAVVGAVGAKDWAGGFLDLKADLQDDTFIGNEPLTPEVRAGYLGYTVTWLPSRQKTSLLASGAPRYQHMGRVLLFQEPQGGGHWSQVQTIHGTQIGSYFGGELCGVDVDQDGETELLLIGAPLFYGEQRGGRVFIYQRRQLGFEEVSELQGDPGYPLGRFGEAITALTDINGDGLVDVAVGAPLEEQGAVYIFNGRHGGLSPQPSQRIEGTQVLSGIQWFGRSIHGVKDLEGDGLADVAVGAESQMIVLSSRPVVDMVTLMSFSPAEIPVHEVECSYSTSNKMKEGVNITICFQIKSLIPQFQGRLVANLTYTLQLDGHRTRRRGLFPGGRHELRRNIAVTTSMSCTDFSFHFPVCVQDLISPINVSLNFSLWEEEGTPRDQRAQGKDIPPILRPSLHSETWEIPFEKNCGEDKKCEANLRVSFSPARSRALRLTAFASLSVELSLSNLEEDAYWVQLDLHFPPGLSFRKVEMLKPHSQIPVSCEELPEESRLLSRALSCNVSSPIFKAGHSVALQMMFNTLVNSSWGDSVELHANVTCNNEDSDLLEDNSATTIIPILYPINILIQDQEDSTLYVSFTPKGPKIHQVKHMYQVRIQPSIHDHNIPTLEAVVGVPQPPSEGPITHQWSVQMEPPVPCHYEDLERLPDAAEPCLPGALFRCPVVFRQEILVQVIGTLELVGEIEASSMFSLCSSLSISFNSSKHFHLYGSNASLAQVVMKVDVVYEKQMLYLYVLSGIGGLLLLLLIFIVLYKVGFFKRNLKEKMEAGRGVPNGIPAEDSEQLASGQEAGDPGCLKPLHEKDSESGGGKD
Intercellular adhesion molecule (ICAM-1), Integrin alpha-L/beta-2, sequence (P05362 whole entry, further chain): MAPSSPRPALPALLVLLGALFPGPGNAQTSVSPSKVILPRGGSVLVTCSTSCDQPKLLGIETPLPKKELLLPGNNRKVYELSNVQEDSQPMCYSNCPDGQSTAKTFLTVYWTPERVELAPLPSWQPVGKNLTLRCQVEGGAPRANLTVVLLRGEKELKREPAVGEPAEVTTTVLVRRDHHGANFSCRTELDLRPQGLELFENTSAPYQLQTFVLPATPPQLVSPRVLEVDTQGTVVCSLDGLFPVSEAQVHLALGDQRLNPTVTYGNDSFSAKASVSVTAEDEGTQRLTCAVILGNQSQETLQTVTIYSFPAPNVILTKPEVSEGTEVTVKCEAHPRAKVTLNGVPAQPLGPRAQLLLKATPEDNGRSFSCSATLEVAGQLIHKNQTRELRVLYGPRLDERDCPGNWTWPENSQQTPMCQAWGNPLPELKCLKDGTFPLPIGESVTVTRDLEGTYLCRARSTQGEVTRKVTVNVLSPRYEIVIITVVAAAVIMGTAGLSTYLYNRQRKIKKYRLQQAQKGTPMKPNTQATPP
Intercellular adhesion molecule (ICAM-1), Integrin alpha-L/beta-2, sequence (P05107 whole entry): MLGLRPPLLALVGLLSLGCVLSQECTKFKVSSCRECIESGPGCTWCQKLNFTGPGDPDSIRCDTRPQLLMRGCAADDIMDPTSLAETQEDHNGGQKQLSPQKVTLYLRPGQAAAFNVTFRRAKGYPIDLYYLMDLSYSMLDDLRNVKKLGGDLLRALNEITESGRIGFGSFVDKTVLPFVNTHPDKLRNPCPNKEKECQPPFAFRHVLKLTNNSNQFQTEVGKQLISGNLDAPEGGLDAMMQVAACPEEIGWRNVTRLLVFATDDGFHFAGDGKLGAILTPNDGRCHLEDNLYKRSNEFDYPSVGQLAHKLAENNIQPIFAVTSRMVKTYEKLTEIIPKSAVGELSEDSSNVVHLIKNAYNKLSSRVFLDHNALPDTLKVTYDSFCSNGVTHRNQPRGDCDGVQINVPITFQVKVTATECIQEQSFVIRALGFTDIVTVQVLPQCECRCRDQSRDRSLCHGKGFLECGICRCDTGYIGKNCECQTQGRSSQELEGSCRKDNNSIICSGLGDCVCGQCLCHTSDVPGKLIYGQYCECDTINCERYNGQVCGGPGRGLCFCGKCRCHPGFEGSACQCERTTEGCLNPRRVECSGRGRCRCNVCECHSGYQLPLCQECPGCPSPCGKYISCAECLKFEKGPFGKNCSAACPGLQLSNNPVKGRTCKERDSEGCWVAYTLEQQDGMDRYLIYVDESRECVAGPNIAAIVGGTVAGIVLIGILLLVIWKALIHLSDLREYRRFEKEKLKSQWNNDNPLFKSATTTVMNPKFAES

Structure (SMILES)	pIC50
CC(C)C[C@H]1C(=O)N([C@H](C(N)=O)c2ccc3ccccc3c2)CCC(C)N1C(=O)Cc1ccc2ccccc2c1 (some centres not stated)	< 4.70
CC(C)C[C@H]1C(=O)N([C@@H](Cc2ccc3ccccc3c2)C(N)=O)CC[C@@H](C)N1C(=O)Cc1ccccc1	6.12
CC(C)C[C@H]1C(=O)N([C@@H](Cc2ccc3ccccc3c2)C(N)=O)CC[C@@H](C)N1C(=O)Cc1ccc2ccccc2c1	5.70
COC(=O)[C@H](Cc1ccc2ccccc2c1)N1CC[C@@H](C)N(C(=O)Cc2ccc3ncccc3c2)[C@@H](CC(C)C)C1=O	5.59
CC(C)C[C@H]1C(=O)N([C@@H](Cc2ccc3ccccc3c2)C(N)=O)CC[C@@H](C)N1C(=O)Cc1ccncc1	6.01
CC(C)C[C@H]1C(=O)N([C@@H](Cc2ccc3ccccc3c2)C(=O)O)CC[C@@H](C)N1C(=O)Cc1ccc2ccccc2c1	< 4.70
CC(C)C[C@H]1C(=O)N([C@@H](Cc2ccc3ccccc3c2)C(N)=O)CC[C@@H](C)N1C(=O)Cc1ccc(Br)cc1	5.89
